The values that follow come from PubChem BioAssay (NCI).

Common to all, as to test: inhibition of tumour cell growth, NCI panel, 48 h
For assay [1], the system named is MOLT-4 leukemia.
Assay [2] has as its system MALME-3M melanoma.
The test system of assay [3] is K-562 leukemia.
Assay [4] concerns SF-539 CNS.
Assay [5] relates to UACC-62 melanoma.
The subject of assay [6] is HCC-2998 colon.
The subject of assay [7] is A549 NSCLC.
The test system of assay [8] is HL-60(TB) leukemia.
Assay [9] deals with SNB-75 CNS.
Assay [10] relates to NCI-H522 lung.

Several values for one entry are separate records, joined by “and”; a condition that tells them apart may be missing. Identical values can stand only once.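 A five-concentration, 48-hour dose response in 96-well plates underlies each endpoint, interpolated linearly between surrounding concentrations. GI50: concentration for 50% inhibition of growth. TGI: total growth inhibition.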 Where a SMILES comes first, the peptide text is derived from it. [ ]: non-standard residue; d: D form. The star is where a group is joined. Phe(4-NO2) = N[CH](Cc1ccc([N+](=O)[O-])cc1)C(=O)O; Boc = CC(C)(C)OC(=O)*; OtBu = CC(C)(C)O* Bounds are passed on as bounds.

As for `CN(C)CCNC(=O)c1cccc2c(NC(CS)C(=O)O)c3ccccc3nc12` (centres undefined), the TGI was 44.3 µM in [1]; 11.3 µM in [2]; more than 100 µM in assay [3]; 18.1 µM in [4]; more than 100 µM in [5]; more than 100 µM in assay [6]. Further, the TGI in assay [7] is 66.9 µM; in assay [8], 9.72 µM; in assay [9], 38.5 µM; in assay [10] it was 20.2 µM.
For `Cc1nn(C(=O)c2ccccc2O)c2c1C(c1ccc(O)cc1)SC(N)=N2` (centres undefined), the TGI in [1] is more than 10 µM; in assay [2], more than 10 µM; in assay [3] it was more than 3.53 µM; in assay [4], more than 2.47 µM; in [5] it was more than 10 µM; in assay [6], more than 10 µM. For the same compound, the TGI was more than 10 µM in assay [7], more than 4.33 µM in assay [8], 8.56 µM in assay [9] and more than 10 µM in assay [10].
Regarding `CN1C/C(=C\c2ccccc2[N+](=O)[O-])C(=O)/C(=C/c2ccccc2[N+](=O)[O-])C1`, the GI50 in assay [1] was 0.308 µM; in assay [2] it was 1.29 µM and 0.216 µM; in assay [3] it was 0.25 µM and 0.089 µM; in assay [4], 0.53 µM and 1.13 µM; in assay [6], 2.26 µM; in assay [8] it was 0.239 µM. Further, in assay [10], the GI50 was 0.437 µM and 0.187 µM. Further, the TGI in assay [1] was 1.02 µM and 0.572 µM; in assay [2], 2.73 µM and 0.505 µM; in assay [4], 2.3 µM and 3.86 µM; in assay [5] it was 2.13 µM and 3.79 µM; in assay [6], 5.52 µM and 3.01 µM; in [7] it was 14.4 µM and 12.9 µM. Also, the TGI in assay [8] was 0.632 µM and 0.41 µM; in assay [9] it was 6.77 µM and 7.57 µM; in assay [10], 1.05 µM and 0.396 µM.
For `COc1ccc(CC2C(=O)NC(C)C(=O)N(C)C3Cc4ccc(cc4)Oc4cc(ccc4O)CC(C(=O)NC(C)C(=O)NC(C)C(=O)N2C)N(C)C3=O)cc1` (centres undefined), the GI50 in assay [1], in [2], in assay [3], in assay [4], in assay [6] and in [8] was less than 0.0001 µM each time. Also, the GI50 in [9] and in assay [10] was less than 0.0001 µM each time. In addition, the TGI in [3] is 2.01 µM; in assay [4] it was 0.0219 µM and 0.0288 µM; in [5], 0.161 µM and 0.0223 µM; in assay [6], 0.0168 µM and 0.0292 µM; in assay [7] it was 0.193 µM and 0.599 µM and 0.306 µM; in assay [9], 0.0214 µM.
Consider `O=C(CCCN1CCc2[nH]c3cc(F)ccc3c2C1)c1ccc(F)cc1`, for which the TGI in [1] turned out to be 29 µM; in assay [2], 26 µM; in assay [3], 22.5 µM; in [4], 30.5 µM; in assay [5], 25.5 µM; in [6], 11.9 µM. In addition, the TGI in assay [7] was determined as 29.5 µM; in assay [8], 27.2 µM; in [9] it was 22.9 µM; in assay [10] it was 35.6 µM.
In the case of `CSc1nc2c(ncn2C2OCC(O)C(O)C2O)c(=O)[nH]1` (centres undefined), the TGI in assay [1], in assay [2], in assay [3], in assay [4], in [5] and in assay [6] was more than 100 µM each time. In addition, the TGI in assay [7], in assay [8], in [9] and in assay [10] was more than 100 µM each time.
In the case of `COc1ccc(C[C@H]2COC(=O)[C@@H]2Cc2cc(OC)c(OC)c(OC)c2)cc1OC`, the TGI in [1], in assay [2], in assay [3], in assay [4], in assay [5] and in assay [6] was more than 100 µM throughout. For the same compound, the TGI in assay [7], in assay [8], in assay [9] and in [10] was more than 100 µM each time.
Consider `CC(C)[Si]1(C(C)C)OCC2OC(n3cnc4c(N)ncnc43)C(N)C2O[Si](C(C)C)(C(C)C)O1` (centres undefined), for which the TGI in assay [1] was 7.84 µM; in [2], more than 100 µM; in assay [3] it was 36.9 µM; in [4], 24.4 µM; in assay [5], 27.4 µM; in [6], 14.5 µM. The TGI in assay [7] is 49.5 µM; in [8], more than 28.2 µM; in [9], 25.1 µM; in assay [10], 26.4 µM.
As for `COC(=O)C(Cc1ccc([N+](=O)[O-])cc1)NC(=O)C(CC(=O)OC(C)(C)C)NC(=O)OC(C)(C)C` (centres undefined) (Boc-Asp(OtBu)-[Phe(4-NO2)]-OMe; configuration not given here), the TGI in assay [1], in assay [2], in assay [3], in assay [4], in assay [5] and in assay [6] was more than 100 µM throughout. Also, the TGI in [7], in assay [8], in assay [9] and in assay [10] was more than 100 µM each time.
Regarding `CC(=O)c1c(O)c(C)c(O)c2c1OC1=CC(=O)C(C(C)=O)C(=O)C12C` (centres undefined), the GI50 in assay [1] was 3.37 µM and 20.1 µM; in [3], 4.62 µM and 23 µM; in assay [4] it was 5.09 µM and 16.3 µM; in assay [5], 4.86 µM and 12.7 µM; in assay [6], 6.08 µM and 13.7 µM; in [7], 3.77 µM and 13.8 µM. The GI50 in assay [8] was 3.15 µM and 16.4 µM; in assay [9] it was 5.97 µM and 22.5 µM; in assay [10], 4.15 µM and 19.3 µM. For the same compound, the TGI is 13.5 µM and 59.4 µM in assay [1]; 28.8 µM and 42.6 µM in [2]; 24.3 µM and 84.8 µM in assay [3]; 18.4 µM and 23.5 µM in assay [4]; 20.1 µM and 26.4 µM in assay [5]; 17.1 µM and 22.8 µM in assay [6]. The TGI was 25.1 µM and 48.4 µM in assay [7]; 8.9 µM and 43 µM in [8]; 21.2 µM and 49 µM in assay [9]; 15.2 µM and 56.6 µM in assay [10].
With `C=C1C(=O)C[C@@]23CCC[C@@]12CC(O)C3` (some centres undefined), the TGI in assay [1] was more than 80.7 µM; in assay [2], 18.3 µM; in assay [3], more than 87 µM; in assay [4] it was 61.3 µM; in [5], 30.9 µM; in assay [6], more than 62.1 µM. Further, the TGI is more than 100 µM in [7], 49.9 µM in [8], 48.7 µM in assay [9] and 7.55 µM in assay [10].
For `CN(Cc1nc2c(N)nc(N)nc2nc1N)c1ccc(C(=O)NC(CCC(=O)O)C(=O)O)cc1` (centres undefined), the TGI in assay [1], in assay [2], in assay [3], in assay [4], in assay [5] and in [6] was more than 100 µM throughout. Besides, the TGI in [7], in [8], in assay [9] and in assay [10] was more than 100 µM in each case.
Take `C/C(=N\O)c1ccc(Nc2c3ccccc3nc3occc23)cc1`: the TGI in assay [1] is more than 21.3 µM; in [2], more than 50 µM; in assay [3], more than 50 µM; in assay [4], 0.732 µM; in assay [5], 16.6 µM; in assay [6] it was 6.35 µM. Moreover, the TGI was more than 11.9 µM in assay [7], 6.95 µM in assay [8], 3.78 µM in [9] and 0.287 µM in assay [10].
